These results are taken from article PMC4730117, “In vitro Biochemical Characterization of All Barley Endosperm Starch Synthases” (Frontiers in Plant Science, 2016).

Series [1] deals with T1, HvSSI (Hordeum vulgare, UniProt Q9M5A3).
T1 construct: gene SSI; without predicted chloroplast transit peptide, N-terminal His-tag, codon-optimised, E. coli
T1 sequence (Q9M5A3 32-643): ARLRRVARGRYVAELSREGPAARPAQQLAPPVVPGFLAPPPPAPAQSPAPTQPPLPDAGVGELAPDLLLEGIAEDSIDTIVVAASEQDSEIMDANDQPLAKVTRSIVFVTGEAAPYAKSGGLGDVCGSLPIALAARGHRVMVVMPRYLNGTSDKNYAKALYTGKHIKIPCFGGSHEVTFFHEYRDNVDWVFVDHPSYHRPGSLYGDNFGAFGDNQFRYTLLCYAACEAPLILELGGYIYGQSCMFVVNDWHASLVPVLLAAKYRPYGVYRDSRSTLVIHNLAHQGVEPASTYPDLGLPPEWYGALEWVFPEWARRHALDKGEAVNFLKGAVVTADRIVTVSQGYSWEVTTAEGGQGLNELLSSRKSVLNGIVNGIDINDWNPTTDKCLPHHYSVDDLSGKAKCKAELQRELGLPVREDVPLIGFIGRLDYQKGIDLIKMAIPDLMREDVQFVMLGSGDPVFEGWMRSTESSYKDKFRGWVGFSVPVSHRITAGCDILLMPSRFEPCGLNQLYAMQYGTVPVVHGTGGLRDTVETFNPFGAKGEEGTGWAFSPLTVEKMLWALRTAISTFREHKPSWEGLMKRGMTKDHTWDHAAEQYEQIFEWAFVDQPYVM
Kind of series: biochemical. On the set-up: Thermofluor (differential scanning fluorimetry, Sypro orange), shift of melting temperature of HvSSI versus no additive. The following applies: 0.1 mg/mL HvSSI, 1X Sypro orange, 20 mM Tris pH 8.0, 100 mM NaCl, read-out: Δ Tm to reference; for ΔTm at 10000 µM: 10 mM. On the procedure: HvSSI unfolding temperatures were measured with a variant of the Thermofluor method (Niesen et al., [2007]). Details are given in S.I. The effect of additives on SSI stability was studied in some detail with the thermofluor assay; details for many additives are given in S.I. The strongest effects were from sugars, which increased protein stability by 1°C for every 50 mM hexose present as oligosaccharides, with glucose and other monosaccharides having only half the effect.

Substrate in series [2]: Nc1ncnc2c1ncn2[C@@H]1O[C@H](COP(=O)(O)OP(=O)(O)O[C@H]2O[C@H](CO)[C@@H](O)[C@H](O)[C@H]2O)[C@@H](O)[C@H]1O
As to the kind of experiment: coupled spectrophotometric assay (pyruvate kinase / lactate dehydrogenase, NADH). It is filed as biochemical, Hordeum vulgare. The following applies: 10 mM maltotriose acceptor, 50 mM Bicine pH 8.5, 25 mM KOAc, 2 mM MgCl2, 37°C. From the text: coupled spectrophotometric assay (pyruvate kinase / lactate dehydrogenase, NADH) on HvSSIIIb

Substrate in series [3]: Nc1ncnc2c1ncn2[C@@H]1O[C@H](COP(=O)(O)OP(=O)(O)O[C@H]2O[C@H](CO)[C@@H](O)[C@H](O)[C@H]2O)[C@@H](O)[C@H]1O
The description is as above. In kind it is biochemical, Hordeum vulgare. Particulars: 10 mM maltotriose acceptor, 50 mM Bicine pH 8.5, 25 mM KOAc, 2 mM MgCl2, 37°C. From the text:
coupled spectrophotometric assay (pyruvate kinase / lactate dehydrogenase, NADH) on HvSSI
This is another data set of the same source.

Substrate in series [4]: Nc1ncnc2c1ncn2[C@@H]1O[C@H](COP(=O)(O)OP(=O)(O)O[C@H]2O[C@H](CO)[C@@H](O)[C@H](O)[C@H]2O)[C@@H](O)[C@H]1O
Described as above. It is filed as biochemical, Hordeum vulgare. The following applies: 10 mM maltotriose acceptor, 50 mM Bicine pH 8.5, 25 mM KOAc, 2 mM MgCl2, 37°C. The source says: coupled spectrophotometric assay (pyruvate kinase / lactate dehydrogenase, NADH) on […]
The source holds these as a separate data set.

Substrate in series [5]: Nc1ncnc2c1ncn2[C@@H]1O[C@H](COP(=O)(O)OP(=O)(O)O[C@H]2O[C@H](CO)[C@@H](O)[C@H](O)[C@H]2O)[C@@H](O)[C@H]1O
The description is as above. It is filed as biochemical, Hordeum vulgare. The following applies: 100 mM maltose (DP = 2) acceptor, 50 mM Bicine pH 8.5, 25 mM KOAc, 2 mM MgCl2, 37°C. The source says:
coupled spectrophotometric assay (pyruvate kinase / lactate dehydrogenase, NADH) on HvGBSSI

On to `OC[C@H]1O[C@H](O[C@H]2[C@H](O)[C@@H](O)C(O)O[C@@H]2CO)[C@H](O)[C@@H](O)[C@@H]1O` (mixture of isomers) [maltose], for which the ΔTm at 10000 µM in series [1] was 0.3 °C. The same measure, in the same setting: the figure for `C[C@H]1O[C@H](O[C@H]2[C@H](O)[C@@H](O)[C@@H](O[C@H]3[C@H](O)[C@@H](O)C(O)O[C@@H]3CO)O[C@@H]2CO)[C@H](O)[C@@H](O)[C@@H]1N[C@H]1C=C(CO)[C@@H](O)[C@H](O)[C@H]1O` (stereo partly shown) [acarbose] is 0.4 °C.

`OC[C@H]1OC(O)[C@H](O)[C@@H](O)[C@@H]1O` (stereo partly shown) [glucose]: the ΔTm at 100000 µM in series [1] (100 mM) was determined as 1 °C. Regarding `OCC1OC(OC2C(CO)OC(OC3C(CO)OC(OC4C(CO)OC(OC5C(CO)OC(OC6C(CO)OC(OC7C(CO)OC(OC8C(CO)OC(O)C(O)C8O)C(O)C7O)C(O)C6O)C(O)C5O)C(O)C4O)C(O)C3O)C(O)C2O)C(O)C(O)C1O` (stereo not shown) [maltooctaose], in series [1], the ΔTm at 10000 µM came out at 2 °C. Same read-out and setting: with `OC[C@H]1O[C@H](O[C@H]2[C@H](O)[C@@H](O)[C@@H](O[C@H]3[C@H](O)[C@@H](O)[C@@H](O[C@H]4[C@H](O)[C@@H](O)[C@@H](O[C@H]5[C@H](O)[C@@H](O)C(O)O[C@@H]5CO)O[C@@H]4CO)O[C@@H]3CO)O[C@@H]2CO)[C@H](O)[C@@H](O)[C@@H]1O` (stereo partly shown) [maltopentaose] the figure was 1.3 °C.

B1: HvSSIIIb (Hordeum vulgare subsp. vulgare) (protein)
chain: SSDYPKRNPRRSSAPKPKGTASRGYAPRPSAESWTSTKKIEHGSADEDGDLGRSNGTLSGDATEQASTAEEESEVEFAGNVSSSAGLEGVAETEKEADQNQLPALSSTSMDVESVNEATEQTIIGDESSVVDFSGNVSGSVALEVVDESETEEEADQKQSSSLASTSMDSESIDRELEGYRARINALVGASTQEQDRSIIGVHDQDKSVISPNEQDISAVDVPEQGLSGVGVTREDPTKQTTSKQEITEAAVEEISSKNFVARKHSISGDGVEASKNANQQPLVDGDELKITEDEEQHEPEMQEYVRKDVDLQALKRRLEELADGNYSIGNKCFVFPELVKADSVIDLYLNRSMSALASEPDILIKGAFNGWRWNHFTERLHKSELSGDWWCCKLYIPKQAYRLDFVFFNGDTVYENNSYNDFVLHIESDIDEHSFEDFLLEEKQRELERLAAEEAERERQAEEERRKEEERAAMEADRAQAKAEVEMTRNNLQHVLGLASRYANNLWYIEPNTYKGGDRVRLYYNRSSGPLKHKNEIWLHGSYNNWTDGPSIVERLVKSDEQDGDWWYANVTLPESALVLDWVFADGPPGNARKYDNNGKRDFHAAVSKSISEDLFWVKEEHRIFERLQRERKEKEDAGRRKAEITARMKAEMKEKTMREFLLSQKHIVYTEPLEVRAGMTVDVLYNPSNTVLNGSPEVWFRCSFNRWTHPSGPLPPQKMVNAENGSHLQATVRVPLDAYMMDFVFSESEEGGMYDNRDGMDYHIPVSDSMAKEPPMHIVHIAVEMAPIAKVGGLGDVVTSLSRAIQDLGHKVEVVFPKYDCLNLSNVKDLHCRQSFTWGGTEIKVWFGKVEGISVYFLEPQNGMFWVGCVYGRNDESRFGFFCHSALEFLLQSGSSPDIIHCHDWSSAPVAWLYKQHYVHNGLPNGRVVFTIHNLEFGVHHIGKAMAHCDKATTVSYTYSKEVSGHGSIAPHYFKFHGIRNGIDSDIWDPYNDNFIPVHYTSENVVEGKSSAKRALQEKLGLHQTDSPLVGIISRLTAQKGIHLIKHAIYRTLERNGQVVLLGSAPDHRIQGDFSNLASKLHGEFDGRVKLCLTYDEPLSHLIYAGADFILVPSIFEPCGLTQLTAMRYGSIPIVRKTGGLYDTVFDVDDDKDRAREQGLEPNGFSFEGADSNGVDYALDRAITTWYDARGWFHSLCKRVMEQDWSWNRPALDYMELYHSARKN
notes: without predicted chloroplast transit peptide, N-terminal His-tag, codon-optimised, E. coli
Regarding B1, in series [2], the Km came to 440 ± 40 µM and the kcat is given as >740 turnovers·min^-1 (DP = 3).

B2: HvSSI (Hordeum vulgare) (protein)
chain: T1 sequence (Q9M5A3 32-643)
notes: as for B1
As for B2, the Km in series [3] was 630 ± 20 µM.

B3: HvSSIV (Hordeum vulgare subsp. vulgare) (protein)
chain: QQRPQRSTAGADHLNTAANVRSDEAAVSAEKERQRKYSDGDGISNLQLEDLVEMIQNTEKNILLLNQARLQAMERADKILKEKEALQRKISILETRLSETDAQHKLSSEGNFSESPLALEFDVLKEENILLKEDIEFFKSKLIEVAKTEEGIFKLEKERALLDASLRELESRFIAAQADMMKLGPRDAWWEKVEKLEDLLETTANQVERAAVILDNNHDLQDKLDKLVASLQAANISKFSSSLVDLLQQKVKLVEERFQACNREMHSQIKLYEHSIVEFHDTLSKLIEESEKRSLENFTGNMPSELWSKISLLIDGWLLEKKISYNDASLLREMVRKRDSRLREAYLSYRGTENREVMDNFLKMALPGTSSGLHIAHIAAEMAPVAKVGGLADVISGLGKALQKKGHLVEIILPKYDCMQVDQVSNLKVLDVPVQSYFEGNMFDNKIWTGTVEGLPVYFIEPQHPAMFFSRAQYYGEHDDFKRFTYFSRAALELLYQSGKKVDIIHCHDWQTAFVAPLYWDVYANLGFNSARICFTCHNFEYQGTAPARDLAWCGLDVEHLDRPDRMRDNSHGRINAVKGAVVYSNIVTTVSPTYALEVLSQGGRGLQDTLKVHSRKFLGILNGIDTDTWNPSTDRYLKVQYNAKDLQGKAANKAALREQLNLASAYPSQPLVGCITRLVAQKGVHLIRHAIYKTAELGGQFVLLGSSPVPEIQREFEGIADHFQDNNNIRLILKYDDALSHCIYAASDMFIVPSIFEPCGLTQMIAMRYGSVPIVRKTGGLNDSVFDFDDETIPVEVRNGFTFVKADEQGLSSAMERAFNCYTRKPEVWKQLVQKDMTIDFSWDTSASQYEDIYQKAVARARAAA
notes: without predicted chloroplast transit peptide, C-terminal His-tag, codon-optimised, E. coli
With B3, the Km in series [4] is 310 ± 20 µM.

B4: HvGBSSI (Hordeum vulgare) (protein)
chain: ATGSGMNLVFVGAEMAPWSKTGGLGDVLGGLPPAMAANGHRVMVVSPRYDQYKDAWDTSVISEIKVADEYERVRFFHCYKRGVDRVFIDHPWFLEKVRGKTKEKIYGPDAGTDYEDNQQRFSLLCQAALEAPRILNLNNNPYFSGPYGEDVVFVCNDWHTGLLACYLKSNYQSNGIYRTAKVAFCIHNISYQGRFSFDDFAQLNLPDRFKSSFDFIDGYDKPVEGRKINWMKAGILQADKVLTVSPYYAEELISGEARGCELDNIMRLTGITGIVNGMDVSEWDPTKDKFLAVNYDITTALEAKALNKEALQAEVGLPVDRKVPLVAFIGRLEEQKGPDVMIAAIPEILKEEDVQIILLGTGKKKFEKLLKSMEEKFPGKVRAVVRFNAPLAHQMMAGADLLAVTSRFEPCGLIQLQGMRYGTPCVCASTGGLVDTIVEGKTGFHMGRLSVDCNVVEPADVKKVATTLKRAVKVVGTPAYQEMVKNCMIQDLSWKGPAKNWEDVLLELGVEGSEPGIVGEEIAPLAMENVAAP
notes: as for B1
Consider B4, for which the Km in series [5] was found to be 90 ± 20 µM.

As usually defined, the Km is the substrate concentration at which the rate is half of its maximum.
